{"source": "paper PMC7747594", "about": "“Protease-activated receptor-2 ligands reveal orthosteric and allosteric mechanisms of receptor inhibition” (Communications Biology, 2020)", "key": {"hPAR2 [1]": {"target": "T1, hPAR2 (Homo sapiens, UniProt P55085)", "T1 sequence (P55085 26-397)": "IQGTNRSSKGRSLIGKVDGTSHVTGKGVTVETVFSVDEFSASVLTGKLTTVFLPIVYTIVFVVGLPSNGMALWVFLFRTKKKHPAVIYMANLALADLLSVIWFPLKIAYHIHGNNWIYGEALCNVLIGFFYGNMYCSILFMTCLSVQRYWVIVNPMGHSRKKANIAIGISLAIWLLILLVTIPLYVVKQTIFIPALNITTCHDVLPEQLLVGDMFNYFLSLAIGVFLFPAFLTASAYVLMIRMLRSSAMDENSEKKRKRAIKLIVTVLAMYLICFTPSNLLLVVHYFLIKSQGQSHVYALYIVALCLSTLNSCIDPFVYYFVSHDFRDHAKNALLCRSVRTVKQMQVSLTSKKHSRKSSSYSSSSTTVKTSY", "assay": "pERK1/2 assay, agonist mode, U2OS-hPAR2 cells", "format": "cell-based", "set-up": "agonist response (Fig 2e), individual replicate values: unit not given here"}, "hPAR2 [2]": {"target": "T1, hPAR2", "assay": "IP1 assay, agonist mode, 1321N1-hPAR2 cells", "format": "cell-based"}, "PAR4 (F2RL3)": {"target": "T2, PAR4 (F2RL3) (Homo sapiens, UniProt Q96RI0)", "T2 sequence (Q96RI0 18-385)": "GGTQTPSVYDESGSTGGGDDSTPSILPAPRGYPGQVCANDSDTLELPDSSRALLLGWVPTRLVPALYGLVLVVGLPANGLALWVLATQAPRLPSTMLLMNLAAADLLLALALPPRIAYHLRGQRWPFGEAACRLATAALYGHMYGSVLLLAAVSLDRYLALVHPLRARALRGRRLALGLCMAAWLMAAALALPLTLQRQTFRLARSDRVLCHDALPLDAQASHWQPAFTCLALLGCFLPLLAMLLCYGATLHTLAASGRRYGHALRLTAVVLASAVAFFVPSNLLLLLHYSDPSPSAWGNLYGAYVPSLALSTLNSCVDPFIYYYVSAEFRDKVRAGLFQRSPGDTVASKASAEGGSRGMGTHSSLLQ", "assay": "β-arrestin recruitment, DiscoverX profiling service, PAR4", "format": "cell-based"}, "mast cells [3]": {"system": "mast cells", "assay": "Immunohistochemistry, tryptase-positive (AA1+ve) intact mast cells in rat paw", "format": "in vivo", "details": "for AA +ve cells (% max): 2f-induced rat paw oedema, individual animals (Figure 5c); for decrease of tryptase-positive mast cells by 2f-LIGRLO-NH2: pre-treatment, 30 min", "experimental": "(§1) Tissues were then embedded with Optimal Cutting Temperature compound (OCT, Sakura Finetek, USA) and stored at −80 °C before making cryo-sections for histological analysis. Frozen sections (5 µm) were made using a cryostat-microtome (Leica Biosystems, Germany). […] Slides were then dehydrated and mounted in DPX mountant (Sigma-Aldrich, USA). For immunohistochemistry, slides were briefly rinsed with PBS to remove OCT. Except for tryptase staining, antigen retrieval was performed by incubating slides in citrate buffer (0.01 M, pH 6) at 95 °C for 20 min. They were then cooled down briefly and incubated with blocking medium (PBS, 0.1% Triton X-100, 10% horse serum) for 1 h at room temperature in a humidity chamber. Samples were incubated with primary antibody medium (PBS, 0.1% Triton X-100, 4% horse serum; 1:100 primary antibody including – histamine, neutrophil elastase or ED1 antibodies) overnight at 4 °C. The next day, samples were washed with PBS and incubated with the secondary antibody medium (PBS, 0.1% Triton X-100, 4% horse serum, detection antibody 1:200) for 2 h at room temperature. For tryptase staining, slides were incubated with primary antibody medium (as above with tryptase antibody at 1:100 dilution) for 4 h, then the secondary antibody medium for 2 h. Finally, slides were dried, counterstained with DAPI (Invitrogen, Australia), and sealed with clear nail polish. Primary antibodies for tryptase (AA1, ab2378, Abcam, Australia), histamine (H7403, Sigma-Aldrich, USA), neutrophil elastase (ab21595, Abcam, Australia) and ED1 (ab31630, Abcam, Australia) were purchased from commercial sources. Secondary detection antibody was purchased from Abcam, Australia."}, "mast cells [4]": {"system": "mast cells", "assay": "Mast cell staining (toluidine blue), activated/degranulated mast cells in rat paw", "format": "in vivo", "set-up": "Active mast cells (%): concentration or dose not given beside the values", "details": "for Active mast cells (%): 2f-induced rat paw oedema, individual animals (Figure 5b); for percentage activated/degranulated mast cells in paw induced by 2f-LIGRLO-NH2: pre-treatment, 30 min", "experimental": "as §1"}}, "note": "Where “and” joins values, the source holds several entries; their conditions need not be identical. Equal entries are not always repeated.", "data": [{"compound": "CNC(=O)[C@H]1CC[C@@H](NC(=O)[C@H](CC2CCCCC2)NC(=O)c2cn(Cc3ccccc3)nn2)c2ccccc21", "note": "[AZ2429]", "values": [{"measurement": "EC50", "setting": "hPAR2 [1]; U2OS-hPAR2, mean ± s.e.m., read-out: pERK1/2 pEC50 (converted)", "result": 0.0398, "unit": "µM"}, {"measurement": "agonist response (Fig 2e), individual replicate values", "setting": "hPAR2 [1]; [compound],M -4.52288", "result": "92.0141 and 74.7053 and 111.675 and 66.5866 and 60.3473 and 74.0471 and 117.965 and 130.52 and 124.805 and 98.7887 and 171.327 and 138.91"}, {"measurement": "agonist response (Fig 2e), individual replicate values", "setting": "hPAR2 [1]; [compound],M -5", "result": "145.403 and 95.3612 and 122.434 and 53.1755 and 72.071 and 69.3732 and 123.833 and 115.408 and 143.854 and 198.596 and 120.076 and 126.959"}, {"measurement": "agonist response (Fig 2e), individual replicate values", "setting": "hPAR2 [1]; [compound],M -5.47712", "result": "102.451 and 94.8209 and 99.914 and 62.5677 and 62.1847 and 84.7772 and 121.954 and 124.064 and 131.389 and 108.103 and 101.197 and 120.75"}, {"measurement": "agonist response (Fig 2e), individual replicate values", "setting": "hPAR2 [1]; [compound],M -5.95424", "result": "89.9122 and 82.9611 and 84.3447 and 63.5614 and 54.0303 and 47.0028 and 93.3928 and 116.239 and 97.5862 and 98.4234 and 105.569 and 117.075"}, {"measurement": "agonist response (Fig 2e), individual replicate values", "setting": "hPAR2 [1]; [compound],M -6.43136", "result": "89.3258 and 69.9482 and 44.5682 and 54.9685 and 62.0293 and 44.3162 and 80.2501 and 88.0999 and 54.8467 and 72.3986 and 88.607 and 61.7832"}, {"measurement": "agonist response (Fig 2e), individual replicate values", "setting": "hPAR2 [1]; [compound],M -6.90849", "result": "70.3304 and 41.0432 and 36.2531 and 47.5801 and 30.25 and 29.0399 and 34.5189 and 34.3783 and 18.7041 and 36.9798 and 32.4711 and 22.2209"}, {"measurement": "agonist response (Fig 2e), individual replicate values", "setting": "hPAR2 [1]; [compound],M -7.38561", "result": "20.4269 and 21.9818 and 16.3418 and 12.8089 and 11.7486 and 24.5769 and 9.704 and 15.3673 and 6.674 and 12.0051 and 3.09 and 15.3723"}, {"measurement": "agonist response (Fig 2e), individual replicate values", "setting": "hPAR2 [1]; [compound],M -7.86273", "result": "4.95 and -1.995 and 15.7225 and 4.505 and 8.124 and 3.783 and 3.311 and 7.198 and -0.6009 and -4.9 and 2.6 and 2.634"}, {"measurement": "agonist response (Fig 2e), individual replicate values", "setting": "hPAR2 [1]; [compound],M -8.33985", "result": "2.5581 and 8.989 and 6.59 and 1.141"}, {"measurement": "more potent than SLIGKV-NH2, IP1 accumulation", "setting": "hPAR2 [2]; 1321N1-hPAR2", "result": 120, "unit": "fold"}, {"measurement": "EC50", "setting": "hPAR2 [2]; 1321N1-hPAR2 cells, mean ± s.e.m., read-out: IP1 pEC50 (converted)", "result": 0.2, "unit": "µM"}, {"measurement": "Max Response", "setting": "PAR4 (F2RL3); Arrestin, Agonist format, F2RL3", "result": 3.8, "unit": "%"}, {"measurement": "EC50", "setting": "PAR4 (F2RL3); Arrestin, Agonist format, F2RL3, read-out: RC50 (EC50)", "result": "> 50", "unit": "µM"}, {"measurement": "Max Response", "setting": "PAR4 (F2RL3); Arrestin, Antagonist format, F2RL3", "result": 2.3, "unit": "%"}, {"measurement": "IC50", "setting": "PAR4 (F2RL3); Arrestin, Antagonist format, F2RL3, read-out: RC50 (IC50)", "result": "> 50", "unit": "µM"}, {"measurement": "activity against PAR4 in β-arrestin-2 recruitment assay", "setting": "PAR4 (F2RL3); DiscoverX profiling service", "result": "No AZ2429 activity was detected"}]}, {"compound": "C[C@@H](C1CCCCC1)n1c(-c2cc3c(cc2Br)OCO3)nc2cc(C(=O)Nc3ccc(C#N)cc3)ccc21", "note": "[AZ3451]", "values": [{"measurement": "AA +ve cells (% max)", "setting": "mast cells [3]", "result": "91.7692 % max and 45.8846 % max and 58.1835 % max and 66.6982 % max"}, {"measurement": "decrease of tryptase-positive mast cells by 2f-LIGRLO-NH2", "setting": "mast cells [3]", "result": "partly blocked"}, {"measurement": "Active mast cells (%)", "setting": "mast cells [4]", "result": "40% and 57.0833% and 59.9284% and 37.5635% and 18.0263%"}, {"measurement": "percentage activated/degranulated mast cells in paw induced by 2f-LIGRLO-NH2", "setting": "mast cells [4]", "result": "inhibited"}]}, {"compound": "CCCc1cc(F)ccc1C(O)c1ncc[nH]1", "note": "(stereo not shown) [AZ8838]", "values": [{"measurement": "AA +ve cells (% max)", "setting": "mast cells [3]", "result": "70.0073 % max and 71.1692 % max and 108.061 % max and 60.4212 % max and 59.2593 % max"}, {"measurement": "decrease of tryptase-positive mast cells by 2f-LIGRLO-NH2", "setting": "mast cells [3]", "result": "partly blocked"}, {"measurement": "Active mast cells (%)", "setting": "mast cells [4]", "result": "57.5% and 42.6997% and 37.7451% and 42.5373% and 50%"}, {"measurement": "percentage activated/degranulated mast cells in paw induced by 2f-LIGRLO-NH2", "setting": "mast cells [4]", "result": "inhibited"}]}]}
